The results in this text go back to ChEMBL document CHEMBL4396902, “Development of a Platform To Enable Efficient Permeability Evaluation of Novel Organo-Peptide Macrocycles” (ACS Med Chem Lett, 2019).

For orientation: Papp means the rate of passage across a membrane or cell layer, normalised by area and donor concentration.

This data set can be described thus: Apparent permeability in dog MDCK2 cells incubated for 3 hrs. The format is ADME, cell-based, Canis lupus familiaris. The following applies: mdck-ii.
For `CC[C@H](C)[C@@H]1NC(=O)CNc2ccccc2CCNC(=O)[C@@H]2CCCN2C(=O)[C@@H](Cc2ccccc2)NC(=O)[C@@H](CC(C)C)NC1=O`, the Papp turned out to be 14.5 ×10⁻⁶ cm/s.

In the case of `CC[C@H](C)[C@@H]1NC(=O)CNc2cccc(c2)CCNC(=O)[C@@H]2CCCN2C(=O)[C@@H](Cc2ccccc2)NC(=O)[C@@H](CC(C)C)NC1=O`, the Papp was found to be 7.6 ×10⁻⁶ cm/s.

On to `CC[C@H](C)[C@@H]1NC(=O)CCCNc2cccc(c2)CNC(=O)[C@@H]2CCCN2C(=O)[C@H](Cc2ccc(F)cc2)NC(=O)[C@H](CC2CCCCC2)NC1=O`, for which the Papp was determined as 2.9 ×10⁻⁶ cm/s.

In the case of `CC[C@H](C)[C@@H]1NC(=O)CNc2ccccc2CCNC(=O)[C@@H]2CCCN2C(=O)[C@H](Cc2ccc(F)cc2)NC(=O)[C@@H](CC(C)C)NC1=O`, the Papp turned out to be 12.9 ×10⁻⁶ cm/s.

Consider `CC[C@H](C)[C@@H]1NC(=O)CNc2cccc(c2)CCNC(=O)[C@@H]2CCCN2C(=O)[C@H](Cc2ccc(F)cc2)NC(=O)[C@@H](CC(C)C)NC1=O`, for which the Papp came to 5.7 ×10⁻⁶ cm/s.

As for `CC(C)C[C@H]1NC(=O)[C@@H](C(C)C)NC(=O)CNc2ccccc2CCNC(=O)[C@@H]2CCCN2C(=O)[C@H](Cc2ccc(F)cc2)NC1=O`, the apparent permeability coefficient (Papp) is 5.5 ×10⁻⁶ cm/s.

`CC(C)C[C@H]1NC(=O)[C@@H](C(C)C)NC(=O)CNc2cccc(c2)CCNC(=O)[C@@H]2CCCN2C(=O)[C@H](Cc2ccc(F)cc2)NC1=O`: the Papp was 4 ×10⁻⁶ cm/s.

Consider `CC[C@H](C)[C@@H]1NC(=O)CNc2cccc(c2)CNC(=O)[C@@H]2CCCN2C(=O)[C@H](Cc2ccc(F)cc2)NC(=O)[C@H](CC2CCCCC2)NC1=O`, for which the Papp worked out at 3.9 ×10⁻⁶ cm/s.
